In PubChem BioAssay (NCI):
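96-well plates; 48 h exposure; 5 concentrations. Endpoints by linear interpolation between flanking doses. Not reached: highest tested concentration assigned. GI50 = concentration required for 50% inhibition of growth. Definition used: TGI = concentration required for complete inhibition of growth.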

How the values were obtained:
Assay in all cases: NCI anticancer screen, dose series, 48 h
786-0 renal = tested on: 786-0 renal
A498 renal = tested on: A498 renal
A549 NSCLC = tested on: A549 NSCLC
ACHN renal = tested on: ACHN renal
BT-549 breast = tested on: BT-549 breast
CAKI-1 renal = tested on: CAKI-1 renal
CCRF-CEM leukemia = tested on: CCRF-CEM leukemia
COLO 205 colon = tested on: COLO 205 colon
DU-145 prostate = tested on: DU-145 prostate
HCC-2998 colon = tested on: HCC-2998 colon
HCT-116 colon = tested on: HCT-116 colon
HCT-15 colon = tested on: HCT-15 colon
HL-60(TB) leukemia = tested on: HL-60(TB) leukemia
HOP-62 NSCLC = tested on: HOP-62 NSCLC
HOP-92 NSCLC = tested on: HOP-92 NSCLC
HS 578T breast = tested on: HS 578T breast
HT29 colon = tested on: HT29 colon
IGROV1 ovarian = tested on: IGROV1 ovarian
K-562 leukemia = tested on: K-562 leukemia
KM12 colon = tested on: KM12 colon
LOX IMVI melanoma = tested on: LOX IMVI melanoma
M14 melanoma = tested on: M14 melanoma
MALME-3M melanoma = tested on: MALME-3M melanoma
MCF7 breast = tested on: MCF7 breast
MDA-MB-231 breast = tested on: MDA-MB-231 breast
MDA-MB-435 = tested on: MDA-MB-435
MOLT-4 leukemia = tested on: MOLT-4 leukemia
NCI-H226 lung = tested on: NCI-H226 lung
NCI-H23 lung = tested on: NCI-H23 lung
NCI-H460 lung = tested on: NCI-H460 lung
NCI-H522 lung = tested on: NCI-H522 lung
NCI/ADR-RES ovarian = tested on: NCI/ADR-RES ovarian
OVCAR-3 ovarian = tested on: OVCAR-3 ovarian
OVCAR-4 ovarian = tested on: OVCAR-4 ovarian
OVCAR-5 ovarian = tested on: OVCAR-5 ovarian
OVCAR-8 ovarian = tested on: OVCAR-8 ovarian
PC-3 prostate = tested on: PC-3 prostate
RPMI-8226 leukemia = tested on: RPMI-8226 leukemia
SF-268 CNS = tested on: SF-268 CNS
SF-295 CNS = tested on: SF-295 CNS
SF-539 CNS = tested on: SF-539 CNS
SK-MEL-2 melanoma = tested on: SK-MEL-2 melanoma
SK-MEL-28 melanoma = tested on: SK-MEL-28 melanoma
SK-MEL-5 melanoma = tested on: SK-MEL-5 melanoma
SK-OV-3 ovarian = tested on: SK-OV-3 ovarian
SN12C renal = tested on: SN12C renal
SNB-19 CNS = tested on: SNB-19 CNS
SNB-75 CNS = tested on: SNB-75 CNS
SR leukemia = tested on: SR leukemia
SW-620 colon = tested on: SW-620 colon
T-47D breast = tested on: T-47D breast
TK-10 renal = tested on: TK-10 renal
U251 CNS = tested on: U251 CNS
UACC-257 melanoma = tested on: UACC-257 melanoma
UACC-62 melanoma = tested on: UACC-62 melanoma
UO-31 renal = tested on: UO-31 renal

## O=C(Nc1ccc(CN2CCOCC2)cc1)c1ccc(-c2cc(Cl)ccc2Cl)o1
786-0 renal
  GI50: 11.8 µM
  TGI: 26.1 µM
A498 renal
  GI50: 10 µM
  TGI: 22.1 µM
A549 NSCLC
  GI50: 7.48 µM
  TGI: 32.4 µM
ACHN renal
  GI50: 18.4 µM
  TGI: 97.9 µM
BT-549 breast
  GI50: 7.79 µM
  TGI: 43.1 µM
CAKI-1 renal
  GI50: 13 µM
  TGI: 56.4 µM
CCRF-CEM leukemia
  GI50: 6.02 µM
  TGI: 49.1 µM
COLO 205 colon
  GI50: 2240 nM
  TGI: 4.19 µM
DU-145 prostate
  GI50: 18 µM
  TGI: 63.3 µM
HCC-2998 colon
  GI50: 9.29 µM
  TGI: 23 µM
HCT-116 colon
  GI50: 5.92 µM
  TGI: 21.4 µM
HCT-15 colon
  GI50: 3.29 µM
  TGI: 34.4 µM
HL-60(TB) leukemia
  GI50: 4.45 µM
  TGI: 20.9 µM
HOP-62 NSCLC
  GI50: 15.5 µM
  TGI: 38.5 µM
HOP-92 NSCLC
  GI50: 10.2 µM
  TGI: 33.7 µM
HS 578T breast
  GI50: 12.5 µM
  TGI: 34.4 µM
HT29 colon
  GI50: 2960 nM
  TGI: 12 µM
IGROV1 ovarian
  GI50: 23.5 µM
  TGI: 61.6 µM
K-562 leukemia
  GI50: 2000 nM
  TGI: 6.09 µM
KM12 colon
  GI50: 4.41 µM
  TGI: 16.3 µM
LOX IMVI melanoma
  GI50: 2650 nM
  TGI: 13 µM
M14 melanoma
  GI50: 11.1 µM
  TGI: 32.4 µM
MALME-3M melanoma
  GI50: 8.74 µM
  TGI: 29.2 µM
MCF7 breast
  GI50: 9.98 µM
  TGI: 26.3 µM
MDA-MB-231 breast
  GI50: 10.7 µM
  TGI: 29.5 µM
MDA-MB-435
  GI50: 11.6 µM
  TGI: 29.2 µM
MOLT-4 leukemia
  GI50: 4.34 µM
  TGI: 20.5 µM
NCI-H226 lung
  GI50: 12.2 µM
  TGI: 33.6 µM
NCI-H23 lung
  GI50: 12.8 µM
  TGI: 31.8 µM
NCI-H460 lung
  GI50: 3.54 µM
  TGI: 12.4 µM
NCI-H522 lung
  GI50: 10.2 µM
  TGI: 26.6 µM
NCI/ADR-RES ovarian
  GI50: 17.4 µM
  TGI: > 100 µM
OVCAR-3 ovarian
  GI50: 15.3 µM
  TGI: 39.2 µM
OVCAR-4 ovarian
  GI50: 17.6 µM
  TGI: 67.1 µM
OVCAR-5 ovarian
  GI50: 15.7 µM
  TGI: 61.1 µM
OVCAR-8 ovarian
  GI50: 11.4 µM
  TGI: 51.3 µM
PC-3 prostate
  GI50: 8.63 µM
  TGI: 36.4 µM
RPMI-8226 leukemia
  GI50: 3.49 µM
  TGI: 17.7 µM
SF-268 CNS
  GI50: 16.5 µM
  TGI: 49.1 µM
SF-295 CNS
  GI50: 5.38 µM
  TGI: 28.5 µM
SF-539 CNS
  GI50: 8.69 µM
  TGI: 24.9 µM
SK-MEL-2 melanoma
  GI50: 14.7 µM
  TGI: 30.5 µM
SK-MEL-28 melanoma
  GI50: 11.9 µM
  TGI: 26.6 µM
SK-MEL-5 melanoma
  GI50: 4.45 µM
  TGI: 16.7 µM
SK-OV-3 ovarian
  GI50: 15.1 µM
  TGI: 30.6 µM
SN12C renal
  GI50: 16.4 µM
  TGI: 52.6 µM
SNB-19 CNS
  GI50: 16.2 µM
  TGI: 35.6 µM
SNB-75 CNS
  GI50: 16 µM
  TGI: 36 µM
SR leukemia
  GI50: 2350 nM
  TGI: 8.99 µM
SW-620 colon
  GI50: 3.33 µM
  TGI: 11.5 µM
T-47D breast
  GI50: 5.34 µM
  TGI: 22.4 µM
TK-10 renal
  GI50: 13.1 µM
  TGI: 29.1 µM
U251 CNS
  GI50: 4.62 µM
  TGI: 19.6 µM
UACC-257 melanoma
  GI50: 11.2 µM
  TGI: 24.4 µM
UACC-62 melanoma
  GI50: 2390 nM
  TGI: 6.88 µM
UO-31 renal
  GI50: 18.3 µM
  TGI: 78.1 µM
